The results in this text go back to PMC9570413, “A New Phospholipase D from Moritella sp. JT01: Biochemical Characterization, Crystallization and Application in the Synthesis of Phosphatidic Acid” (International Journal of Molecular Sciences, 2022).

For the assay, the target named is T1, MsPLD (phospholipase D from Moritella sp. JT01) (Moritella sp. JT01, UniProt A0A137SLD1).
T1 construct: gene AKG98_3441; precursor 578 residues; C-terminal 6xHis (pET-21a); E. coli SHuffle T7; about 62 kDa
T1 sequence (A0A137SLD1 29-578): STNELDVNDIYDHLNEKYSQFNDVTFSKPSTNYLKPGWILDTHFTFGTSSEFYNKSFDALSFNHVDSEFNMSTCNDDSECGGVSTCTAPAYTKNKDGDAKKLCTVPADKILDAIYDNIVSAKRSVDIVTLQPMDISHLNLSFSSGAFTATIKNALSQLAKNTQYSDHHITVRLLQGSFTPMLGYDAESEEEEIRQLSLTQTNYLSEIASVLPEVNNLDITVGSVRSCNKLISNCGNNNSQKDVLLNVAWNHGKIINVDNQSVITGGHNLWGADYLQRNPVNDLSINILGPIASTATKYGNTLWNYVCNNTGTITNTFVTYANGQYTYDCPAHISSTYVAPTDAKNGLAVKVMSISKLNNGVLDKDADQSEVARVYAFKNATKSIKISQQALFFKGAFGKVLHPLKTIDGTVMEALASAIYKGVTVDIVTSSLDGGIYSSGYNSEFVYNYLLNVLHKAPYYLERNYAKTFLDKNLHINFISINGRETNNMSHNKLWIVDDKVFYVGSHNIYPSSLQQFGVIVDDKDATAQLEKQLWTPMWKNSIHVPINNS
The experiment in a line: enzyme-linked colorimetry (choline oxidase/peroxidase), Michaelis-Menten. The class given is biochemical. The following applies: 0.1 M Tris-HCl pH 8.0, 35 °C, SDS and Triton X-100 in assay mixture; 0.5-8.0 mM PC; natural soybean PC, acyl chains not defined (class of species, no single structure). As to the method:
enzyme-linked colorimetry (choline oxidase/peroxidase), Michaelis-Menten on MsPLD (phospholipase D from Moritella sp. JT01) | the kinetic parameters of MsPLD to soy PC were determined

One may read the Km as the substrate concentration at which the rate is half of its maximum. For the substance L-α-phosphatidylcholine from soybean, the Km was 3.44 ± 0.81 mM.
